Assay results from BindingDB's records for doi:10.1021/jm991125l (Institut Curie, 2000).
pEC50: −log10 of the molar value.

experiment: Effective concentration required to achieve 50% inhibition of HIV-1 LAI replication in human T4 lymphoblastoid CEM-SS cells.

Compound	pEC50
CCc1c(C)[nH]c(=O)c(NC(=O)CNC(=O)CNC(=O)OC(C)(C)C)c1Cc1cc(C)cc(C)c1	5.49
CCc1c(C)[nH]c(=O)c(NC(=O)CCCC(=O)O)c1Cc1cc(C)cc(C)c1	5.35
CCc1c(C)[nH]c(=O)c(N)c1Cc1cc(C)cc(C)c1 [3-amino-4-[(3,5-dimethylphenyl)methyl]-5-ethyl-6-methyl-1,2-dihydropyridin-2-one]	7.77
[N-]=[N+]=NC1CC(n2cc(CCC(=O)NCCCCCCCCCCN)c(=O)[nH]c2=O)OC1CO (configuration not stated)	4.70
CCc1c(C)[nH]c(=O)c(NC(=O)CCCCCCCCCNC(=O)OC(C)(C)C)c1Cc1cc(C)cc(C)c1	< 5.00
CCc1c(Sc2cc(C)cc(C)c2)n(CCCCC(=O)NCCCCCCCCCCNC(=O)CCn2c(=O)c(C)cn(C3CC(N=[N+]=[N-])C(CO)O3)c2=O)c(=O)[nH]c1=O (configuration not stated)	5.55
CCc1c(C)[nH]c(=O)c(NC(=O)CNC(=O)CN)c1Cc1cc(C)cc(C)c1	6.14
CCc1c(C)[nH]c(=O)c(NC(=O)CCCCCCCCCN)c1Cc1cc(C)cc(C)c1	4.24
CCc1c(Sc2cc(C)cc(C)c2)n(CCCCC(=O)NCCCCNC(=O)CCc2cn(C3CC(N=[N+]=[N-])C(CO)O3)c(=O)[nH]c2=O)c(=O)[nH]c1=O (configuration not stated)	5.48
CCc1c(C)[nH]c(=O)c(NC(=O)CCCC(=O)OC)c1Cc1cc(C)cc(C)c1	4.62
CCc1c(C)[nH]c(=O)c(NC(=O)CCCCCCCCC(=O)O)c1Cc1cc(C)cc(C)c1	4.15

Further lines, results first:

pEC50	Compound
8.70	Cc1cn([C@H]2C[C@H](N=[N+]=[N-])[C@@H](CO)O2)c(=O)[nH]c1=O [1-((2R,4S,5S)-4-Azido-5-hydroxymethyl-tetrahydro-furan-2-yl)-5-methyl-1H-pyrimidine-2,4-dione]
6.10	CCOC(=O)CCn1c(=O)c(C)cn(C2CC(N=[N+]=[N-])C(CO)O2)c1=O (configuration not stated)
6.37	CCc1c(Sc2cc(C)cc(C)c2)n(CCCCC(=O)NCCCCCCCCCCCCNc2ccn(C3CCC(CO)O3)c(=O)n2)c(=O)[nH]c1=O (configuration not stated)
< 4.00	[N-]=[N+]=NC1CC(n2cc(CCC(=O)NCCCCN)c(=O)[nH]c2=O)OC1CO (configuration not stated)
5.11	NCCCCCCCCCCCCNc1ccn(C2CCC(CO)O2)c(=O)n1 (configuration not stated)
7.51	Nc1ccn([C@H]2CC[C@@H](CO)O2)c(=O)n1 [Dideoxycytidine]
< 4.00	COC(=O)CCc1cn(C2CC(N=[N+]=[N-])C(CO)O2)c(=O)[nH]c1=O (configuration not stated)
< 5.00	CCc1c(C)[nH]c(=O)c(NC(=O)CCCCCCCCC(=O)OC)c1Cc1cc(C)cc(C)c1
< 4.00	COC(=O)CCCNC(=O)CCc1cn(C2CC(N=[N+]=[N-])C(CO)O2)c(=O)[nH]c1=O (configuration not stated)
5.77	CCc1c(Sc2cc(C)cc(C)c2)n(CCCCC(=O)NCCCCCCCCCCNC(=O)CCc2cn(C3CC(N=[N+]=[N-])C(CO)O3)c(=O)[nH]c2=O)c(=O)[nH]c1=O (configuration not stated)
7.60	CCc1c(Sc2cc(C)cc(C)c2)n(CCCCC(=O)OC)c(=O)[nH]c1=O
